Data as given in PubChem BioAssay AID2252 (Southern Research Specialized Biocontainment Screening …, 2010).

Test system: THP-1 viability, CellTiter-Glo luminescence, 72 h
Test: PubChem AID 2252

Row | Compound | EC50
1 | C#CCOCCOCCOCCNc1nc(N2CCN(C(=O)CCCCCCCCCCNC(=O)[C@H](CCCCN)n3cc(C)nn3)CC2)nc(N2CCN(C(=O)CCCCCCCCCCNC(=O)[C@@H]([C@H](C)CC)n3cc(CCCCCN)nn3)CC2)n1 | 12.7 µM
2 | Cc1cnc(C(=O)Nc2nnc(C)s2)cn1 | < 0.1 µM
3 | Clc1ccc(CN2CCc3c([nH]c4ccccc34)C2)cc1Cl | 8.16 µM
4 | CN(C)CCCN(C(=O)c1cc2cc([N+](=O)[O-])ccc2s1)c1nc2cc3c(cc2s1)OCCO3 | 3.04 µM
5 | COc1cc(/C=N/NC(=O)c2cncc(Br)c2)cc([N+](=O)[O-])c1O | 38.1 µM
6 | Cc1cc(C)c2nc(C)cc(N/N=C/c3ccc(O)cc3)c2c1 | 1.91 µM
7 | CCN(CCCNC(=O)c1cn(CC)c2ccc(S(=O)(=O)N(C)C)cc2c1=O)c1cccc(C)c1 | 34.8 µM
8 | COc1ccc(/C=N/Nc2cc(C)nc3ccc(Br)cc23)cc1 | 4.17 µM
9 | Nc1nc(Nc2ccccc2)nc2ccccc12 | 3.32 µM
10 | Cc1ccc(CNCCC2=CCCCC2)cc1 | 26.7 µM
11 | COc1ccc(C(=O)C[n+]2cc(Br)cc3ccccc32)cc1[N+](=O)[O-] | < 0.1 µM
12 | CC(NCc1ccccc1O)C12CC3CC(CC(C3)C1)C2 (stereo unspecified) | 41.6 µM
13 | COc1ccc2nc(N(CCN(C)C)C(=O)/C=C/c3cccs3)sc2c1 | 16.1 µM
14 | CN(C)CCNc1oc(COc2ccc(-c3ccccc3)cc2)nc1C#N | 13.1 µM
15 | CCN1CCN(Cc2ccc(NC(=O)c3cc(NC(=O)c4cc(-c5ccc(OC)cc5)n[nH]4)cc(OC)c3)cc2C(F)(F)F)CC1 | 3.92 µM
16 | N=c1c2c(n(Cc3ccc(Cl)cc3)c3c1CCC3)CCC2 | 11.3 µM
17 | COc1ccc2c(C(=O)CCl)c[nH]c2c1 | 11.2 µM
18 | O=c1c2ccccc2nc(COc2ccccc2)n1/N=C/c1ccc(O)cc1O | 1.46 µM
19 | CCN1CCN(c2cc(C)c3cc(NC(=S)N4CCN(c5ccccc5F)CC4)ccc3n2)CC1 | 17.9 µM
20 | CCCCCCCCCCOC(=O)Cn1c(COc2cccc(OC)c2)[n+](C)c2ccccc21 | 2.38 µM
21 | Cc1ccc(C(=O)NCCN2C3=NC[C@@H](Cc4ccccc4)N3C[C@H]2Cc2ccc(O)cc2)cc1Br | 8.09 µM

Row | Compound | EC50
22 | Cc1ccc(OCC(O)Cn2c(=N)n(CCN3CCCCC3)c3ccccc32)cc1 (stereo unspecified) | 5.35 µM
23 | CC1Cc2ccccc2N1S(=O)(=O)c1cccc(C(=O)N2CC(=O)Nc3ccccc32)c1 (stereo unspecified) | 46.1 µM
24 | Fc1ccc(Nc2nc(NCc3ccco3)c3ccccc3n2)cc1 | 5.9 µM
25 | O=C(CC(=O)c1ccccc1O)c1cccc(F)c1 | 26.2 µM
26 | Cc1ccccc1S(=O)(=O)NNC(=O)C(=O)NNc1ccccn1 | 24.2 µM
27 | O=c1[nH]c(=S)ccn1C1OC(CO)C(O)C1O (stereo unspecified) | 16.3 µM
28 | C/C(=N/Nc1ccnc2cc(Cl)ccc12)c1ccc(N)cc1 | 8.34 µM
29 | CC1CCCC(NC(=O)COC(=O)Cc2c[nH]c3ccccc23)C1C (stereo unspecified) | < 0.1 µM
30 | O=C(N/N=C/c1ccccc1O)c1ccncc1 | 15.2 µM
31 | COc1ccc(NS(=O)(=O)c2cc(NC(=O)c3ccc(C)s3)ccc2N2CCOCC2)cc1 | 21.6 µM
32 | COc1ccc(OC)c(S(=O)(=O)N2CCC(C(=O)NCc3ccccc3OC)CC2)c1 | < 0.1 µM
33 | Cc1ccc(O)c(Nc2c3ccccc3nc3ccccc23)c1 | 14.2 µM
34 | CCCCCCCCCn1c2c(c(=N)c3c1CCC3)CCC2 | 0.52 µM
35 | CC(C)N=C(N)N=C(N)Nc1ccc(Cl)cc1 | 35.1 µM
36 | Cc1nonc1C(=O)N/N=C/c1ccc([N+](=O)[O-])o1 | 40.7 µM
37 | O=C1CN(/N=C/c2ccc([N+](=O)[O-])o2)C(=O)N1 | 47.3 µM
38 | CCCCCC[N+](C)(C)CC/C=C1/c2ccccc2Sc2ccc(Cl)cc21 | 5.39 µM
39 | Cn1ncnc2c(=O)n(C)c(=O)nc1-2 | 1.38 µM
40 | CCC(/C=C1\Sc2ccc(OC)cc2N1CCO)=C\c1sc2ccc(OC)cc2[n+]1CCO | 8.14 µM
41 | C#CCOCCOCCOCCNc1nc(N2CCN(C(=O)CCCCCCCCCCNC(=O)Cn3cc(CCCCCN)nn3)CC2)nc(N2CCN(C(=O)CCCCCCCCCCNC(=O)[C@H]([C@@H](C)CC)n3cc(CCCCN=C(N)N)nn3)CC2)n1 | 11 µM
